4 compounds from publication PMC10004634 (PLOS ONE, 2023) can be followed below.

Read-outs that look alike come from different tables or passages of the source.

Common to all, as to assay: biochemical
Parameters in all cases: KINOMEscan scanMAX competition binding, DNA-tagged kinases, qPCR read-out, percent control at 300 nM
(Real-time PCR tracks product formation cycle by cycle.)

Assay [1] has as its target T1, ULK1 (Homo sapiens, UniProt O75385).
T1 sequence (O75385 1-1050): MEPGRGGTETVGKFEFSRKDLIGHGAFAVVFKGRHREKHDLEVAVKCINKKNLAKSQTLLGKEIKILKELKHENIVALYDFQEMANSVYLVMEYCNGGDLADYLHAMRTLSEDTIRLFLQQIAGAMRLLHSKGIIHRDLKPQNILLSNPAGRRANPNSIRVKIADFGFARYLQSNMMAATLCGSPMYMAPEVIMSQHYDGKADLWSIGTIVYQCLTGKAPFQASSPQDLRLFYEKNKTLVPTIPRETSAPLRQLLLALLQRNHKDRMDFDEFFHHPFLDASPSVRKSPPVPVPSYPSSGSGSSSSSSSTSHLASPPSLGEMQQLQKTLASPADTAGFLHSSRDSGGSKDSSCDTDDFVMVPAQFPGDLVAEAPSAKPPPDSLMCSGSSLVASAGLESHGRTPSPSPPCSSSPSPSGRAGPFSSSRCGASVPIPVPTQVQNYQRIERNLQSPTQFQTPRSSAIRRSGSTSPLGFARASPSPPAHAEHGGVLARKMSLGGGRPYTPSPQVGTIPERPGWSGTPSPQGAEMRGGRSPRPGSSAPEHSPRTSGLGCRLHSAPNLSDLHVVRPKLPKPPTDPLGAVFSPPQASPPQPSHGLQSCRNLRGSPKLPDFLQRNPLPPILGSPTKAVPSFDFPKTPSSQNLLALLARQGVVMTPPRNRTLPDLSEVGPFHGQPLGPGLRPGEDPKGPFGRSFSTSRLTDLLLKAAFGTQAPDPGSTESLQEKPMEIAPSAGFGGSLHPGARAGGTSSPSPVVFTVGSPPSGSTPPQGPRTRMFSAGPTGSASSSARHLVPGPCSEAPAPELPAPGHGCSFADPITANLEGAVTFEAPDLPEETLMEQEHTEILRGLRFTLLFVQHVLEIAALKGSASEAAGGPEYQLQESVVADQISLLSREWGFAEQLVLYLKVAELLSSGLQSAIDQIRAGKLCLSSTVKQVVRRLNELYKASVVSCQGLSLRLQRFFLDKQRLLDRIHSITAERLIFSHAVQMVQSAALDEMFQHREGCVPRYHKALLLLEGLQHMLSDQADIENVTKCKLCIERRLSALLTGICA

The target of assay [2] is MARK2 (Homo sapiens, UniProt Q7KZI7).
In assay [3] the target is MKNK1 (Homo sapiens, UniProt Q9BUB5).
Assay [4] addresses LIMK1 (Homo sapiens, UniProt P53667).
Assay [5] concerns the target T2, ERK3 (Homo sapiens, UniProt Q16659).
T2 construct: gene MAPK6

The target in assay [6] is T3, TRKB (Homo sapiens, UniProt Q16620).
T3 construct: gene NTRK2

Assay [7] addresses T4, MAP4K2 (Homo sapiens, UniProt Q12851).
T4 sequence (Q12851 1-820): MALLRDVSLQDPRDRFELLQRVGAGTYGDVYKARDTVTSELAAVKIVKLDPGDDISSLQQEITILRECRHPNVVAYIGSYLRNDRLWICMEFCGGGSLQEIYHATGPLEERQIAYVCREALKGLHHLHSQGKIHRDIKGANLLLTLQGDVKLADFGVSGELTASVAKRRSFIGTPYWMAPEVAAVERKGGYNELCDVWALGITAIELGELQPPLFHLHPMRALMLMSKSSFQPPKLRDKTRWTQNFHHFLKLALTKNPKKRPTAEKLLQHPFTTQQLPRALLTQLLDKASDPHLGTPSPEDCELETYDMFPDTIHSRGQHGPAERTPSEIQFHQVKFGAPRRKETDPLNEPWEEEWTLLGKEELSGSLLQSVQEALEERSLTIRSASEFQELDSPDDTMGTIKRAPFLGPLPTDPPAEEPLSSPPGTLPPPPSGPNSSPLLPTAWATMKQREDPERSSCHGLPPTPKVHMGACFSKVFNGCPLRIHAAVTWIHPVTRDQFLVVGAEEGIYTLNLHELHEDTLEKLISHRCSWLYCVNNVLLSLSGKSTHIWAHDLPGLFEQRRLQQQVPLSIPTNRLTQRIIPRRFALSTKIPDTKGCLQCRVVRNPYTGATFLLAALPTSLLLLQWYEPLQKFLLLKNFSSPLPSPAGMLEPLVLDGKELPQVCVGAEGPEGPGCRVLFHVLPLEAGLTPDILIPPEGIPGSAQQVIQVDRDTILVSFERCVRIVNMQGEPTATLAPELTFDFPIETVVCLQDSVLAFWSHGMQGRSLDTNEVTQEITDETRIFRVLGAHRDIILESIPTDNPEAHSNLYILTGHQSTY

Setting [8] is: read-out: Percent control / Acalabrutinib.
Setting [9] is: read-out: Percent control / Ibrutinib.
The mark [10] stands for this setting: read-out: Percent control / Tirabrutinib.
Where [11] appears, read: read-out: Percent control / Zanubrutinib.

Chain of MARK2 (Q7KZI7 whole entry): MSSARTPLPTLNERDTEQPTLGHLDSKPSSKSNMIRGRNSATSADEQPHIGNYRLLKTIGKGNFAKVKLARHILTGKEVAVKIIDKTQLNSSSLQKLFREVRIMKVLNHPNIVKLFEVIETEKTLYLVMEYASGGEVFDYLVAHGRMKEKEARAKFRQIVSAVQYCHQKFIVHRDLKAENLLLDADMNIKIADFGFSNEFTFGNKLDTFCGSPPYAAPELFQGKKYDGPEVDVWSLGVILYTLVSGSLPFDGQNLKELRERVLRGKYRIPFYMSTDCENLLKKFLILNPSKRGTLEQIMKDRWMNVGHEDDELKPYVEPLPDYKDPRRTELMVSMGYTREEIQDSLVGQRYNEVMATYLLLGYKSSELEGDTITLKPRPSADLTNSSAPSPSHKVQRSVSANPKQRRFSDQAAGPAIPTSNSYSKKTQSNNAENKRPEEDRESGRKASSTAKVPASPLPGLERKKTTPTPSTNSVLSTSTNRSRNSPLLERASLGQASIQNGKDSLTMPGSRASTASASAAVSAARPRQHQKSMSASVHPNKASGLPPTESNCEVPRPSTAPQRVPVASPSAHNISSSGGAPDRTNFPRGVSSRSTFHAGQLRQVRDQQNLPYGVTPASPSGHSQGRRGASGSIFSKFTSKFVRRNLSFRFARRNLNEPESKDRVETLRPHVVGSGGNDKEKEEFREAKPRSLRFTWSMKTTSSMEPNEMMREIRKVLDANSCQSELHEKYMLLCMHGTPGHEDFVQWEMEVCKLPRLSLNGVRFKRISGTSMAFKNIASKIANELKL
T3 sequence (Q16620 whole entry): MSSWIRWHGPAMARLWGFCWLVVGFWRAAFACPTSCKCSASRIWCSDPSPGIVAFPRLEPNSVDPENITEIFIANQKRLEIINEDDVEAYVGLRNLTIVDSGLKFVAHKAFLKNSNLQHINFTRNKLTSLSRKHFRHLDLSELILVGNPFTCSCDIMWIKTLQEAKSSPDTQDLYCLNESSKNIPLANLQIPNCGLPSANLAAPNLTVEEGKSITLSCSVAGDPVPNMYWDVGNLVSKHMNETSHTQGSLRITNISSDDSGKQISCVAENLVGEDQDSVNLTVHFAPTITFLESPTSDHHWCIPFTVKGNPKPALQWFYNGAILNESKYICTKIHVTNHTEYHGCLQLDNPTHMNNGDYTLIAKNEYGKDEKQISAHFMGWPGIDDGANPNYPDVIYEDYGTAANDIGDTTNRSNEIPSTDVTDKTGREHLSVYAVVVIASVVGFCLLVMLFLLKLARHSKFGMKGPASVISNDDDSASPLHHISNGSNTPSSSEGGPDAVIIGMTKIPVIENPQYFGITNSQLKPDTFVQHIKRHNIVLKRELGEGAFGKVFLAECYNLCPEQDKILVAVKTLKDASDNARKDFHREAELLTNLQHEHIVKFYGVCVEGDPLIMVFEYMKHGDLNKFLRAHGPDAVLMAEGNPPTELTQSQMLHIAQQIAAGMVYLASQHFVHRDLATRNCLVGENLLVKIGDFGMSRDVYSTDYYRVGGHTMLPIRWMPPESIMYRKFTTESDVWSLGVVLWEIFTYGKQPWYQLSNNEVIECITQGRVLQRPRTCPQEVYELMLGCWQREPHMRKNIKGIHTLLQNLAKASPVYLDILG
T2 sequence (Q16659 whole entry): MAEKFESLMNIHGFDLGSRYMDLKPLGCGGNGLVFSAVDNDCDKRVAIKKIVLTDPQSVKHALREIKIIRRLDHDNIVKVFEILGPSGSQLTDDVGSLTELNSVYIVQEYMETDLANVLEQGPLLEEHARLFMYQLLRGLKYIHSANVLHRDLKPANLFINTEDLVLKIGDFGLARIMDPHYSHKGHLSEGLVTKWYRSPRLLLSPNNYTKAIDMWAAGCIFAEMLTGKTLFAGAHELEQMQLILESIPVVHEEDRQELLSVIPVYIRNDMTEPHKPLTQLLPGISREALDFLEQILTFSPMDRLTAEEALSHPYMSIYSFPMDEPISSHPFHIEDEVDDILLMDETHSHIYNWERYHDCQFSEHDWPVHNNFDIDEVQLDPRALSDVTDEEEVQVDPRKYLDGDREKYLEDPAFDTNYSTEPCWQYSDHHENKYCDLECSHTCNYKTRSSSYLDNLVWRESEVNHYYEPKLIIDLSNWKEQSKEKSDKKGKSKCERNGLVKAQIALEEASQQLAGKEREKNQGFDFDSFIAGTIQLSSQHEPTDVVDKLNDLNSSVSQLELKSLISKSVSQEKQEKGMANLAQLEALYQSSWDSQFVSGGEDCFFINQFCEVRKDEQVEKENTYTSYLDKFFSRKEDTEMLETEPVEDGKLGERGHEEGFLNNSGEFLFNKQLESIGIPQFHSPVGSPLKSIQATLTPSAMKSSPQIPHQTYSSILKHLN
Chain of LIMK1 (P53667 whole entry): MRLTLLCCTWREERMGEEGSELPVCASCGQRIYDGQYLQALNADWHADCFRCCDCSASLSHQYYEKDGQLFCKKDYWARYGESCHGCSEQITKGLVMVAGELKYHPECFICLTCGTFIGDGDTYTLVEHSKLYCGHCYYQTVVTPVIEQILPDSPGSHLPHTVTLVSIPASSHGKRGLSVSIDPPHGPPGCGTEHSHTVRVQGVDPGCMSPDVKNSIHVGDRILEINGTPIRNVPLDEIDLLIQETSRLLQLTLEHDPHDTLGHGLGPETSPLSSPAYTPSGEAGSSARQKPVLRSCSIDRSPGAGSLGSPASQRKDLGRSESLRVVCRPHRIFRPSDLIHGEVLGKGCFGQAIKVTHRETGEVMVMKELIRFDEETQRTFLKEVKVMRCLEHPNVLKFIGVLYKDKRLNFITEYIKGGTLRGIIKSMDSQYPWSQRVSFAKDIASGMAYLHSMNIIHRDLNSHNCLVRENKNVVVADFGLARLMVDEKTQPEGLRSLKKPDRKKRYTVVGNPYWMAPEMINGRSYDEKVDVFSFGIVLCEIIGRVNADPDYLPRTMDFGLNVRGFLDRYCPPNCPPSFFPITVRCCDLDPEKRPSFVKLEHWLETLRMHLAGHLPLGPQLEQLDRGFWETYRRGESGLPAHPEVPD
Chain of MKNK1 (Q9BUB5 whole entry): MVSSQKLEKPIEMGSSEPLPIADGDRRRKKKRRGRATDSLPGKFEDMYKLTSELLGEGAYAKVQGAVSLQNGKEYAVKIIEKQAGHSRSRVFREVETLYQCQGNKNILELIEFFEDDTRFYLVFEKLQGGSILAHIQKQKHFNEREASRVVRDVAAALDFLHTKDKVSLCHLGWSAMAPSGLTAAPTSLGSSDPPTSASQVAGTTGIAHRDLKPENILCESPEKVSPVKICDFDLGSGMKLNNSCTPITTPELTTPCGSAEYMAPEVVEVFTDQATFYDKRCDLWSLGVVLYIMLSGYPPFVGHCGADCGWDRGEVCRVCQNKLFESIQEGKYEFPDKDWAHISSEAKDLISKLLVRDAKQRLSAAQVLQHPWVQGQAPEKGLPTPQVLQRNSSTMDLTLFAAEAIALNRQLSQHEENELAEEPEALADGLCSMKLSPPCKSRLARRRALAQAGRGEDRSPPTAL

For the compound `CC#CC(=O)N1CCC[C@H]1c1nc(-c2ccc(C(=O)Nc3ccccn3)cc2)c2c(N)nccn12` [Acalabrutinib], the remaining binding at 0.3 µM stood at 95% in assay [1] (setting [8]); 91% in assay [2] (setting [8]); 84% in assay [3] (setting [8]); 47% in assay [4] (setting [8]); 91% in assay [5] (setting [8]).
On to `C=CC(=O)N1CCC[C@@H](n2nc(-c3ccc(Oc4ccccc4)cc3)c3c(N)ncnc32)C1` [Ibrutinib], for which the remaining binding at 0.3 µM was 85% in assay [1] (setting [9]); 87% in assay [2] (setting [9]); 89% in assay [3] (setting [9]); 76% in assay [6] (setting [9]); 57% in assay [4] (setting [9]); 68% in assay [7] (setting [9]).
As for `CC#CC(=O)N1CC[C@@H](n2c(=O)n(-c3ccc(Oc4ccccc4)cc3)c3c(N)ncnc32)C1` [Tirabrutinib], the remaining binding at 0.3 µM in assay [1] (setting [10]) amounted to 74%; in assay [3] (setting [10]), 87%; in assay [6] (setting [10]), 79%; in assay [5] (setting [10]) it was 90%; in assay [7] (setting [10]) it was 80%.
In the case of `C=CC(=O)N1CCC([C@@H]2CCNc3c(C(N)=O)c(-c4ccc(Oc5ccccc5)cc4)nn32)CC1` [Zanubrutinib], the remaining binding at 0.3 µM was determined as 100% in assay [1] (setting [11]); 90% in assay [2] (setting [11]); 100% in assay [3] (setting [11]); 94% in assay [6] (setting [11]); 100% in assay [4] (setting [11]); 98% in assay [5] (setting [11]). The remaining binding at 0.3 µM in assay [7] (setting [11]) was determined as 43%.
